Reference: patent publication US20130259929A1, “USE OF A PHOSPHOPEPTIDE ABLE TO BLOCK HER3/P85 INTERACTION FOR THE TREATMENT OF HER2 HYPER-EXPRESSING TUMOURS” (priority 2010, published 2013)
Non-standard residues stand in square brackets, D forms with d. No end group written: not given here. pY = N[C@@H](Cc1ccc(OP(=O)(O)O)cc1)C(=O)O

Legend:
[1] = tested on: PI3K activity measured as Akt phosphorylation; assay: Akt phosphorylation (Western blot) after peptide transfection; type: cell-based, human
Procedure: (§1) Peptide transfection. In order to inhibit the p85 and ErbB3 interaction, MCF7, BT474 and MDA-MB-453 cell lines have been transfected using 80, 100, and 180 μg, respectively, of the following phosphopeptides:
(§2) Treatments and lmmunodecorations. […] Briefly the cells have been plated at 5×10^5 concentration in 60 mm plates. […] At the end of the treatment the cells have been lysed with RIPA buffer [150 mM NaCl, 1% NP-40, 0,5% sodium deoxycholate (DOC), 0.1% SDS, 50 mM TrisHCl (pH 8), 1 mM PMSF, 1 mM EGTA, 50 mM NaF, 50 mM Na3VO4 and protease inhibitors (Roche, Milano, IT)] in order to analyze the expression levels of phosphorylated and total ErbB-3, ErbB-2, ERK and HSP-70 proteins. In order to analyze the levels of Akt phosphorylation and expression, the cells have been lysed in NP-40 buffer [1% NP-40, 10% glycerol, 137 mM NaCl, 20 mM TrisHCl (pH 7.4), 50 mM NaF, 1 mM PMSF, 5 mM Na3VO4, protease inhibitors (Roche, Milano, IT)]. Cell lysates have been incubated on ice for 20 minutes and centrifuged at 14000 rpm for 20 minutes. RIPA buffer obtained cell extracts have been boiled for 5 minutes at 95° C., while NP40 buffer lysed samples have been boiled at 65° C. for 5 minutes. Samples have been subjected to SDS-PAGE and transferred on nitrocellulose filters (Bio-Rad, Milan, IT). Then the filters have been incubated with interest antibodies, washed and incubated with specific secondary horse radish peroxidase (HRP) conjugated antibodies. After thorough washing, nitrocellulose peroxidase activity has been detected by chemiluminescence (Lite-blot-Euroclone, Milano, IT)

p85 = p85 (Homo sapiens, UniProt P27986); details: binding to p85; cited from earlier work
Sequence of p85 (P27986 whole entry): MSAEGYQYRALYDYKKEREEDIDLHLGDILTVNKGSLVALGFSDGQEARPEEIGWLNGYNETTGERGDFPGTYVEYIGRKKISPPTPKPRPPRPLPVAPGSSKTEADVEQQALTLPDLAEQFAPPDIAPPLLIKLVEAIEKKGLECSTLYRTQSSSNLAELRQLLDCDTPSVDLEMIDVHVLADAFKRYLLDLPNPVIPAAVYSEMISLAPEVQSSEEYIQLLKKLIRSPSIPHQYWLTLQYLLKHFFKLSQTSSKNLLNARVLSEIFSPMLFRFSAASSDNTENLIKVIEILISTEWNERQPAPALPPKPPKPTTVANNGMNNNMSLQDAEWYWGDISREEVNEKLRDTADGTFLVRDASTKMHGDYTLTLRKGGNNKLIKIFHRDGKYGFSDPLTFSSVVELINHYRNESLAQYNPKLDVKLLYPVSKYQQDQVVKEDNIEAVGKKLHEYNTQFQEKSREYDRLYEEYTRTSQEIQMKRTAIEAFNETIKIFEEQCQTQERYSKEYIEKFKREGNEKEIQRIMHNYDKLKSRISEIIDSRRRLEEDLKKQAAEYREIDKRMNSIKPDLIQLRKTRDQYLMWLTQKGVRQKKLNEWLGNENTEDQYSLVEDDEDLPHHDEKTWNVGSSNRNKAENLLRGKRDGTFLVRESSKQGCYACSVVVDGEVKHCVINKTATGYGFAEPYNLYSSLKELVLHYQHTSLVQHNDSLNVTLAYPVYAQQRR

MAPK phosphorylation = assay: MAPK (ERK1/2) phosphorylation (Western blot) after peptide transfection; type: cell-based, human; details: MCF7, BT474 and MDA-MB-453 cells (FIG. 4A); Herceptin where combined
Procedure: as §1
as §2, with “Samples have been subjected to SDS-PAGE and transferred on nitrocellulose filters (Bio-Rad, Milan, IT). Then the filters have been incubated with interest antibodies, washed and incubated with specific secondary horse radish peroxidase (HRP) conjugated antibodies.” left out

[2] = molecular target: T1, HER3 binding to GST-N-SH2p85 fusion protein (Homo sapiens, UniProt P27986); assay: GST pull-down; details: lysates of BT474, MCF7 and MDA-MB-453 cells, in vitro (FIG. 2A, FIG. 3)
T1 construct: containing SH2 domains in N-terminal portion of p85 sub-unit
T1 sequence (P27986 333-428 limits assumed): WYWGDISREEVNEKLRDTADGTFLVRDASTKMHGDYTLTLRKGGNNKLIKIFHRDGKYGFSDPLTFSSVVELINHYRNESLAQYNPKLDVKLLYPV
Procedure: GST pull-down. MCF-7, BT474 and MDA-MB-453 cell lines have been washed 2 times with cold PBS and extracted with lysis buffer [(50 mM Tris HCl (pH 7.4), 250 mM NaCl, 0,1% Triton X-100, 5 mM EDTA, 50 mM NaF, 1 mM PMSF, 5 mM Na3VO4 and 50 mmol/L of protease inhibitors (Roche, Milano, IT)]. After 20 minute ice-cold incubation, the lysates have been clarified by centrifugation at 14000 rpm for 20 minutes. The cellular extracts (1 mg sample) have been incubated for 4 hours at 4° C. in the presence of GST bound gluthatione-agarose beads or GST-p85 fusion protein (kindly supplied by doctor S. Giordano), in the presence or absence of 1257 phosphopeptide or scr peptide used as control. Then the interaction complexes have been washed six times with lysis buffer and subsequently beads eluted using Laemli Buffer 2× [(140 mM SDS, 432 mM Glycerol, 1.6 mM Bromophenol blue, 120 mM Tris HCl (pH 6.8), 8% β-mercaptoethanol)]. The proteins have been separated using 8% SDS-PAGE and transferred on nitrocellulose filter. The filter has been then immunodecorated with anti ErbB3 antibody.
As in FIG. 2A is apparent that 1257 phosphopeptide effectively in vitro binds p85 sub-unit thus inhibiting HER3 receptor binding.

MCF7/Luc cells = assay: In vivo growth of peptide-transfected MCF7/Luc cells inoculated s.c.; parameters: species or system SCID mice; details: s.c. inoculation of transfected MCF7 cells
Procedure: Xeno-grafts. In vivo tests have been carried out using 40 day old SCID female mice (Harlan Laboratories, Milan, IT). At day 0, animals have been totally anesthetized with intramuscular injection of 400 μg/animal (average weight 25 g) of Zoletil (Virbac) containing 0.12% Xylor (Xylazine), and transplanted subcutaneously (s.c.), in intrascapular mouse region with pellet of […] (1.7 mg/sustained release pellet over 60 days, Innovative Research of America, Sarasota, Fla.). On the next day, 5×10^6 proliferating and scr and 1257 peptide previously transfected, as above described, MCF7 or BT474 cells, have been re-suspended in 0.1 ml of Matrigel (BD Biosciences) and subcutaneously inoculated in each mouse. […] Tumour growth has been monitored two times weekly using calibration along two orthogonal axes: length (L) and […]. The tumour volume (V) has been calculated using the formula V=L*(W2)/2. All the procedures relating to animals and treatment thereof have been carried out according institutional guidelines.
Generation of mammary tumour luminescent cells. Mammary tumour MCF7 cell lines stably transfected using pGL4.51 (luc2/CMV/Neo) expression vector, produced by Promega (Me, IT), have been transfected using scr or 1257 phosphopeptide ([…]×5×10^4 cells/mouse) and after 30 h subcutaneously inoculated in SCID mice (5×10^6 cells/mouse) in 200 μl (1:1 Matrigel: cell suspension in serum free medium). Mice have been in vivo imaged 20′ after inoculation and once weekly over 11 weeks. The animals have been anesthetized, as above reported, and subjected to intraperitoneal injection with 200 μl of luciferin (Caliper, Mi, IT); 10′ after incubation photon emission has been analyzed at 3′ minute exposure using Xenogen Ivis Lumina 2 machine. Growth of these cells has been monitored as reported in xenografts section.
Then it has been verified whether 1257 phosphopeptide was effective also in vivo. To this purpose immunocompromised SCID mice have been used. In the presence of oestrogen tablets, 5×10^6 control cells transfected with scr peptide or transfected with 1257 peptide have been injected subcutaneously between mouse scapulae. In order to verify the viability of phosphopeptide transfected cells in animals we have generated a stable luciferase gene expressing MCF7 cell line (MCF7/Luc).

Row | Substance | inhibition of PI3K activity measured as inhibition level of Akt phosphorylation ([1]; MCF7 cells, peptide transfection at different doses (FIG. 12)) | association constant (Ka) (p85) | phosphorylation of Akt ([1]; MCF7, BT474 and MDA-MB-453 cells (FIG. 4A), Herceptin where combined) | MAPK phosphorylation (MAPK phosphorylation) | inhibition of HER3 and p85 SH2 domain binding [2] | time after inoculation at which tumours were calibratable (MCF7/Luc cells) | tumour take (MCF7/Luc cells; SCID mice) [%] | inhibition of Akt phosphorylation ([1]; MCF7 cells, 48 hr after Lipofectamine transfection (FIG. 3))
1 | PTAGTTPDEDpYEYMNRQR (PTAGTTPDED[pY]EYMNRQR; listed as Homo sapiens) [1241 phosphopeptide, second HER3-derived phosphopeptide used for preliminary experiments, reference compound] | not suitable to remarkably inhibit PI3K activity | 824 | – | – | – | – | – | –
2 | PYQMRpYNADTDGERTTEP (PYQMR[pY]NADTDGERTTEP) [scr phosphopeptide, scramble (scr), i.e. not specific, phosphopeptide used as control, reference compound] | – | – | does not result in any effect | does not result in any effect | the binding is as efficient as in the absence of peptide | three | 100 | –
3 | not phosphorylated 1257 peptide: Not phosphorylated 1257 peptide used as further negative control (RDGGGPGGDYAAMGACPA; not fully specified) [reference compound] | – | – | – | – | does not inhibit p85 and ErbB-3 binding | – | – | unable to inhibit Akt phosphorylation
